Data as given in the supplement of paper PMC11061612.

Columns and labels:
[1] = compound: CC(=O)c1c(C)c2cnc(Nc3ccc(N4CCNCC4)cn3)nc2n(C2CCCC2)c1=O [Palbociclib]; settings: max 10 µM
Outline: (§1)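 Cancer cell lines in 1536-well plates (7.5 μl DMEM/F12 or RPMI, 10% FBS) were held 24 hours at 37°C and 5% CO2 and then dosed for 72 hours at a final DMSO of typically 0.2%. Viability was taken from CellTiter-Glo 2.0 luminescence, scaled between blank-well and DMSO-well means. Curves were fitted as two-parameter logistic models with a non-linear mixed effects model, from which the single-agent IC50 was taken.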

[2] = compound: CC(C)n1c(=O)n(C)c2cnc3cc(F)c(-c4ccc(OCCCN5CCCCC5)nc4)cc3c21 [AZD1390]; settings: max 0.3 µM
Outline: as §1

[3] = compound: C1CC(C1)(C(=O)[O-])C(=O)[O-].N.N.[Pt+2] [Carboplatin]; settings: max 10 µM
Outline: as §1

[4] = compound: C[C@@H](Nc1cc(F)cc(F)c1)c1cc(C(=O)N(C)C)cc2c(=O)cc(N3CCOCC3)oc12 [AZD8186]; settings: max 10 µM
Outline: as §1

[5] = compound: Cc1cc2ncnn2cc1Nc1ncc2c(n1)n(C1CCOCC1)c(=O)n2C [AZD7648]; settings: max 10 µM
Outline: as §1

[6] = compound: COc1cc(Nc2ncc3c(n2)-c2ccc(Cl)cc2C(c2c(F)cccc2OC)=NC3)ccc1C(=O)O [Alisertib]; settings: max 10 µM
Outline: as §1

[7] = compound: CC1(C)CCC(CN2CCN(c3ccc(C(=O)NS(=O)(=O)c4ccc(NCC5CCOCC5)c([N+](=O)[O-])c4)c(Oc4cnc5[nH]ccc5c4)c3)CC2)=C(c2ccc(Cl)cc2)C1 [Venetoclax]; settings: max 1 µM
Outline: as §1

[8] = compound: CC1=C(C(=CC=C1)Cl)NC(=O)C2=CN=C(S2)NC3=CC(=NC(=N3)C)N4CCN(CC4)CCO [Dasatinib]; settings: max 2 µM
Outline: as §1

[9] = compound: C=CCn1c(=O)c2cnc(Nc3ccc(N4CCN(C)CC4)cc3)nc2n1-c1cccc(C(C)(C)O)n1 [AZD1775]; settings: max 3 µM
Outline: as §1

[10] = compound: C[C@@H](Oc1cc(-c2cnn(C3CCNCC3)c2)cnc1N)c1c(Cl)ccc(F)c1Cl [Crizotinib]; settings: max 10 µM
Outline: as §1

[11] = compound: O=c1[nH]cc(F)c(=O)[nH]1 [5-Fluorouracil]; settings: max 20 µM
Outline: as §1

[12] = compound: CC(=O)Nc1cccc(-n2c(=O)n(C3CC3)c(=O)c3c(Nc4ccc(I)cc4F)n(C)c(=O)c(C)c32)c1 [Trametinib]; settings: max 1 µM
Outline: as §1

[13] = compound: CN(C)CCCOc1ccc(-c2ccc3ncc4c(c3c2)n(C2CCOCC2)c(=O)n4C)cn1 [AZD0156]; settings: max 3 µM
Outline: as §1

[14] = compound: CCc1c2c(nc3ccc(O)cc13)-c1cc3c(c(=O)n1C2)COC(=O)[C@]3(O)CC [SN-38]; settings: max 0.3 µM
Outline: as §1

[15] = compound: NC1(c2ccc(-c3nc4ccn5c(=O)[nH]nc5c4cc3-c3ccccc3)cc2)CCC1 [MK-2206]; settings: max 10 µM
Outline: as §1

[16] = compound: CCN(CCO)CCCOc1ccc2c(Nc3cc(CC(=O)Nc4cccc(F)c4)[nH]n3)ncnc2c1 [AZD2811]; settings: max 1 µM
Outline: as §1

[17] = compound: C[C@@H](c1ccc2nccn2c1)n1nnc2ncc(-c3cnn(C)c3)nc21 [Savolitinib]; settings: max 1 µM
Outline: as §1

[18] = compound: Cc1c2c(nn1C)CSCc1cc(n(C)n1)CSc1cc(c3ccccc3c1)OCCCc1c(C(=O)O)n(C)c3c-2c(Cl)ccc13 [AZD5991]; settings: max 1 µM
Outline: as §1

[19] = compound: O=C(Nc1ccc2[nH]nc(-c3ccncc3)c2c1)[C@@H]1CCN(CC(=O)N2CCN(c3ccc(-c4ncccn4)cc3)CC2)C1; settings: max 5 µM
Outline: as §1

[20] = compound: COc1cc2ncnc(Nc3ccc(F)c(Cl)c3)c2cc1OCCCN1CCOCC1 [Gefitinib]; settings: max 10 µM
Outline: as §1

[21] = compound: COc1cccc(OCCCN)c1-c1cc(Nc2cnc(C#N)cn2)n[nH]1 [Prexasertib]; settings: max 1 µM
Outline: as §1

[22] = compound: COc1cc([C@@H]2c3cc4c(cc3[C@@H](O[C@@H]3O[C@@H]5CO[C@@H](C)O[C@H]5[C@H](O)[C@H]3O)[C@H]3COC(=O)[C@H]23)OCO4)cc(OC)c1O [Etoposide]; settings: max 10 µM
Outline: as §1

[23] = compound: CC(=O)O[C@H]1C(=O)[C@@]2(C)[C@H]([C@H](OC(=O)c3ccccc3)[C@]3(O)C[C@H](OC(=O)[C@H](O)[C@@H](NC(=O)c4ccccc4)c4ccccc4)C(C)=C1C3(C)C)[C@]1(OC(C)=O)CO[C@@H]1C[C@@H]2O [Paclitaxel]; settings: max 3 µM
Outline: as §1

[24] = compound: COc1nnc2ccc(N3CCC(c4ccc(OCCN5CCN(C)C(=O)[C@H]5C)cc4)CC3)nn12 [AZD5153]; settings: max 1 µM
Outline: as §1

[25] = compound: O=C(c1cc(Cc2n[nH]c(=O)c3ccccc23)ccc1F)N1CCN(C(=O)C2CC2)CC1 [Olaparib]; settings: max 10 µM
Outline: as §1

[26] = compound: CS(=O)(=O)CCNCc1ccc(-c2ccc3ncnc(Nc4ccc(OCc5cccc(F)c5)c(Cl)c4)c3c2)o1 [Lapatinib]; settings: max 10 µM
Outline: as §1

[27] = compound: Cn1cnc2c(F)c(Nc3ccc(Br)cc3Cl)c(C(=O)NOCCO)cc21 [Selumetinib]; settings: max 10 µM
Outline: as §1

[28] = compound: C[C@@H]1COCCN1C2=NC(=NC(=C2)C3(CC3)[S@](=N)(=O)C)C4=C5C=CNC5=NC=C4 [AZD6738]; settings: max 10 µM
Outline: as §1

[29] = compound: Cc1nc(-c2cn3c(n2)-c2ccc(-c4cnn(C(C)(C)C(N)=O)c4)cc2OCC3)n(C(C)C)n1 [Taselisib]; settings: max 10 µM
Outline: as §1

[30] = compound: C1CN(CCC1(C(=O)N[C@@H](CCO)C2=CC=C(C=C2)Cl)N)C3=NC=NC4=C3C=CN4 [AZD5363]; settings: max 10 µM
Outline: as §1

[31] = compound: CN(CC[C@H](CSC1=CC=CC=C1)NC2=C(C=C(C=C2)S(=O)(=O)NC(=O)C3=CC=C(C=C3)N4CCC(CC4)[C@H](C5=CC=CC=C5C6=CC=C(C=C6)Cl)O)S(=O)(=O)C(F)(F)F)CCO [AZD4320]; settings: max 1 µM
Outline: as §1

[32] = compound: N#Cc1cnc(Nc2cc(NC[C@H]3CNCCO3)c(C(F)(F)F)cn2)cn1 [SRA737]; settings: max 10 µM
Outline: as §1

[33] = compound: Nc1ccn([C@@H]2O[C@H](CO)[C@@H](O)C2(F)F)c(=O)n1 [Gemcitabine]; settings: max 0.3 µM
Outline: as §1

[34] = compound: COc1cccc2c1C(=O)c1c(O)c3c(c(O)c1C2=O)C[C@@](O)(C(=O)CO)C[C@@H]3O[C@H]1C[C@H](N)[C@H](O)[C@H](C)O1 [Doxorubicin]; settings: max 1 µM
Outline: as §1

[35] = compound: CC1=CN2[C@@H](C1)C=NC3=CC(=C(C=C3C2=O)OC)OCCCCCOC4=C(C=C5C(=C4)N=C[C@@H]6CC(=CN6C5=O)C)OC [SG3199]; settings: max 0.001 µM
Outline: as §1

Cell Line | IC50, cell viability 72 h [1] | IC50, cell viability 72 h [2] | IC50, cell viability 72 h [3] | IC50, cell viability 72 h [4] | IC50, cell viability 72 h [5] | IC50, cell viability 72 h [6] | IC50, cell viability 72 h [7] | IC50, cell viability 72 h [8] | IC50, cell viability 72 h [9] | IC50, cell viability 72 h [10] | IC50, cell viability 72 h [11] | IC50, cell viability 72 h [12] | IC50, cell viability 72 h [13] | IC50, cell viability 72 h [14] | IC50, cell viability 72 h [15] | IC50, cell viability 72 h [16] | IC50, cell viability 72 h [17] | IC50, cell viability 72 h [18] | IC50, cell viability 72 h [19] | IC50, cell viability 72 h [20] | IC50, cell viability 72 h [21] | IC50, cell viability 72 h [22] | IC50, cell viability 72 h [23] | IC50, cell viability 72 h [24] | IC50, cell viability 72 h [25] | IC50, cell viability 72 h [26] | IC50, cell viability 72 h [27] | IC50, cell viability 72 h [28] | IC50, cell viability 72 h [29] | IC50, cell viability 72 h [30] | IC50, cell viability 72 h [31] | IC50, cell viability 72 h [32] | IC50, cell viability 72 h [33] | IC50, cell viability 72 h [34] | IC50, cell viability 72 h [35]
RCM-1 (Colorectal Carcinoma) | > 10000 nM | > 300 nM | > 10000 nM | > 10000 nM | > 10000 nM | > 10000 nM | > 1000 nM | > 2000 nM | 1790 nM | > 10000 nM | > 20000 nM | 31.8 nM | > 3000 nM | 35.4 nM | > 10000 nM | > 1000 nM | > 1000 nM | > 1000 nM | 2150 nM | > 10000 nM | 23.2 nM | > 10000 nM | > 3000 nM | 506 nM | > 10000 nM | > 10000 nM | 2570 nM | 2610 nM | 9940 nM | > 10000 nM | > 1000 nM | > 10000 nM | > 300 nM | > 1000 nM | > 1 nM
REH (B-Lymphoblastic Leukemia) | 6850 nM | > 300 nM | > 10000 nM | 9640 nM | > 10000 nM | 1620 nM | 211 nM | > 2000 nM | 727 nM | 4210 nM | > 20000 nM | > 1000 nM | > 3000 nM | 4.21 nM | 4580 nM | 218 nM | > 1000 nM | 723 nM | > 5000 nM | > 10000 nM | 24.8 nM | 834 nM | 5.44 nM | 834 nM | > 10000 nM | > 10000 nM | > 10000 nM | 5790 nM | 3310 nM | > 10000 nM | 56.4 nM | > 10000 nM | 15.6 nM | 94.9 nM | > 1 nM
RKN (Other Solid Carcinomas) | > 10000 nM | > 300 nM | > 10000 nM | > 10000 nM | > 10000 nM | > 10000 nM | > 1000 nM | 1740 nM | 2300 nM | > 10000 nM | > 20000 nM | > 1000 nM | > 3000 nM | > 300 nM | > 10000 nM | > 1000 nM | > 1000 nM | > 1000 nM | > 5000 nM | > 10000 nM | 267 nM | > 10000 nM | 40.8 nM | > 1000 nM | > 10000 nM | > 10000 nM | > 10000 nM | > 10000 nM | > 10000 nM | > 10000 nM | > 1000 nM | > 10000 nM | > 300 nM | > 1000 nM | > 1 nM
SF539 (Glioblastoma) | > 10000 nM | > 300 nM | > 10000 nM | > 10000 nM | > 10000 nM | 4930 nM | > 1000 nM | 1630 nM | 185 nM | 9820 nM | 14500 nM | > 1000 nM | > 3000 nM | 18.9 nM | 9370 nM | > 1000 nM | > 1000 nM | > 1000 nM | 3220 nM | > 10000 nM | 8.82 nM | 2140 nM | 7.53 nM | 370 nM | > 10000 nM | > 10000 nM | > 10000 nM | 2050 nM | 3750 nM | 3270 nM | > 1000 nM | 1930 nM | 23.9 nM | 351 nM | > 1 nM
SHP-77 (Small Cell Lung Carcinoma) | > 10000 nM | > 300 nM | > 10000 nM | > 10000 nM | > 10000 nM | > 10000 nM | > 1000 nM | > 2000 nM | 1800 nM | > 10000 nM | 14800 nM | > 1000 nM | > 3000 nM | > 300 nM | > 10000 nM | > 1000 nM | > 1000 nM | > 1000 nM | > 5000 nM | > 10000 nM | 102 nM | > 10000 nM | 76.3 nM | > 1000 nM | > 10000 nM | > 10000 nM | > 10000 nM | > 10000 nM | > 10000 nM | > 10000 nM | > 1000 nM | > 10000 nM | 169 nM | > 1000 nM | > 1 nM
